Experimental findings from patent US20190315731A1, “6-(BUTA-1,3-DIYN-1-YL)BENZO[D]THIAZOLE DERIVATIVES” (Idorsia Pharmaceuticals Ltd., priority 2016, published 2019) are described below.

What all share (assay type): cell-based
For test [1], the system named is E. coli ATCC25922. Briefly: Bacterial growth minimal inhibitory concentration, E. coli ATCC25922. Particulars: quinolone-sensitive strain, cation-adjusted Mueller-Hinton Broth, microdilution; for MIC: Escherichia coli, ATCC25922. The method, then: (§1) Minimal Inhibitory Concentrations (MICs; mg/L) were determined in cation-adjusted Mueller-Hinton Broth by a microdilution method following the description given in “Methods for Dilution Antimicrobial Susceptibility Tests for Bacteria that Grow Aerobically”, Approved standard, 7th ed., Clinical and Laboratory Standards Institute (CLSI) Document M7-A7, Wayne, Pa., USA (2006).
(§2) All Example compounds were tested against several Gram-positive and Gram-negative bacteria. […] K. pneumoniae A-651 is a multiply-resistant (in particular quinolone-resistant) strain, while E. coli ATCC25922 and P. aeruginosa ATCC27853 are quinolone-sensitive strains.

The test system of test [2] is P. aeruginosa ATCC27853. Put plainly: Bacterial growth minimal inhibitory concentration, P. aeruginosa ATCC27853. As to conditions: quinolone-sensitive strain, cation-adjusted Mueller-Hinton Broth, microdilution; for MIC: Pseudomonas aeruginosa, ATCC27853. The method, then: as §1, §2
On the technique in general: In broth dilution the organism is exposed to a series of concentrations in liquid medium.

Test [3] concerns K. pneumoniae A-651. Put plainly: Bacterial growth minimal inhibitory concentration, K. pneumoniae A-651. As to conditions: cation-adjusted Mueller-Hinton Broth, microdilution; for MIC: Klebsiella pneumoniae, A651, multiply-resistant (in particular quinolone-resistant) strain; for MIC for K. Pneumoniae A-651: multiply-resistant (in particular quinolone-resistant) strain. The method, then:
as §1, §2

The subject of test [4] is wild-type E. coli A-1261. Put plainly: Bacterial growth minimal inhibitory concentration of prodrugs, wild-type E. coli A-1261, with or without alkaline phosphatase or esterase. The method, then: as §1
The compounds of Examples 6 and 21 were tested against wild-type E. coli A-1261 in the absence of alkaline phosphatase or esterase, in the presence of an alkaline phosphatase and in the presence of an esterase. The corresponding antibacterial test results are given in Table 2 hereafter (MICs in mg/L).

Values after ≈ are worked out from the molar mass of the structure shown.

In general, MIC refers to the least concentration at which growth counts as inhibited. Low readings indicate greater potency, high ones weaker potency. Consider `CN1C[C@@H](C#CC#Cc2ccc3nc(CC[C@](C)(C(=O)NO)S(C)(=O)=O)sc3c2)[C@@H]1CO` [Example 17, (2R)—N-hydroxy-4-(6-(((2R,3R)-2-(hydroxymethyl)-1-methylazetidin-3-yl)buta-1,3-diyn-1-yl)benzo[d]thiazol-2-yl)-2-methyl-2-(methylsulfonyl)butanamide], for which the minimum inhibitory concentration (MIC) amounted to 0.5 µg/mL (≈ 1.05 µM) in test [1], 1 µg/mL (≈ 2.1 µM) in test [2] and 1 µg/mL (≈ 2.1 µM) in test [3].

With `C[C@@](CCc1nc2ccc(C#CC#CC3CN(CCF)C3)cc2s1)(C(=O)NO)S(C)(=O)=O` [Example 13, (2R)-4-(6-((1-(2-fluoroethyl)azetidin-3-yl)buta-1,3-diyn-1-yl)benzo[d]thiazol-2-yl)-N-hydroxy-2-methyl-2-(methylsulfonyl)butanamide], the MIC in test [1] was 0.125 µg/mL (≈ 0.262 µM); in test [2] it was 1 µg/mL (≈ 2.09 µM); in test [3], 0.25 µg/mL (≈ 0.523 µM).

As for `CN1CCC(F)(C#CC#Cc2ccc3nc(CC[C@](C)(C(=O)NO)S(C)(=O)=O)sc3c2)C1` (mixture of isomers) [Example 14, (2R)-4-(6-(((3RS)-3-fluoro-1-methylpyrrolidin-3-yl)buta-1,3-diyn-1-yl)benzo[d]thiazol-2-yl)-N-hydroxy-2-methyl-2-(methylsulfonyl)butanamide], the MIC in test [1] was determined as 0.063 µg/mL; in test [2], 1 µg/mL; in test [3], 0.25 µg/mL.

In the case of `C[C@@](CCc1nc2ccc(C#CC#CCOC(=O)N3CC(O)C3)cc2s1)(C(=O)NO)S(C)(=O)=O` [Example 3, (2R)-5-(2-(4-(hydroxyamino)-3-methyl-3-(methylsulfonyl)-4-oxobutyl)benzo[d]thiazol-6-yl)penta-2,4-diyn-1-yl 3-hydroxyazetidine-1-carboxylate], in test [1], the “MIC for E. coli ATCC25922” value worked out at 0.5 µg/mL. Besides, in test [2], the “MIC for P. aeruginosa ATCC27853” value worked out at 4 µg/mL. In addition, the “MIC for K. Pneumoniae A-651” value in test [3] is 1 µg/mL.

For the compound `C[C@@](CCc1nc2ccc(C#CC#CC3CN(CCCO)C3)cc2s1)(C(=O)NO)S(C)(=O)=O` [Example 10, (2R)—N-hydroxy-4-(6-((1-(3-hydroxypropyl)azetidin-3-yl)buta-1,3-diyn-1-yl)benzo[d]thiazol-2-yl)-2-methyl-2-(methylsulfonyl)butanamide], the MIC was found to be 0.25 µg/mL (≈ 0.511 µM) in test [1], 1 µg/mL (≈ 2.04 µM) in test [2] and 0.5 µg/mL (≈ 1.02 µM) in test [3].

In the case of `CNC1(C#CC#Cc2ccc3nc(CC[C@](C)(C(=O)NO)S(C)(=O)=O)sc3c2)CC1` [Example 18, (2R)—N-hydroxy-2-methyl-4-(6-((1-(methylamino)cyclopropyl)buta-1,3-diyn-1-yl)benzo[d]thiazol-2-yl)-2-(methylsulfonyl)butanamide], the results for the MIC in test [1], in test [2] and in test [3] were 0.125 µg/mL (≈ 0.281 µM), 1 µg/mL (≈ 2.24 µM) and 0.25 µg/mL (≈ 0.561 µM), respectively.

Take “(2R)-2-(3-((4-(5-((1-(3-hydroxypropyl)azetidin-3-yl)buta-1,3-diyn-1-yl)benzo[d]thiazol-2-yl)-2-methyl-2-(methylsulfonyl)butanamido)oxy)-3-oxopropyl)phenyl dihydrogen phosphate [Example 21]”: the “MIC for E. coli A-1261 In the presence of an alkaline phosphatase (2 i.U./mL)” value in test [4] (alkaline phosphatase 2 i.U./mL) is 0.5 µg/mL. Besides, the “MIC for E. coli A-1261 In the presence of an esterase (10 i.U./mL)” value in test [4] (esterase 10 i.U./mL) was determined as 8 µg/mL. Also, the “MIC for E. coli A-1261 In the absence of alkaline phosphatase or esterase” value in test [4] (no alkaline phosphatase or esterase) is 0.5 µg/mL.

Take `C[C@@](CCc1nc2ccc(C#CC#CC3CN(C4CC(O)C4)C3)cc2s1)(C(=O)NO)S(C)(=O)=O` (stereo partly drawn) [Example 12, (2R)—N-hydroxy-4-(6-((1-(3-hydroxycyclobutyl)azetidin-3-yl)buta-1,3-diyn-1-yl)benzo[d]thiazol-2-yl)-2-methyl-2-(methylsulfonyl)butanamide]: the MIC is 0.125 µg/mL (≈ 0.249 µM) in test [1], 1 µg/mL (≈ 1.99 µM) in test [2] and 0.25 µg/mL (≈ 0.498 µM) in test [3].

As for `CN1CCC(F)(C#CC#Cc2ccc3nc(CC[C@](C)(C(=O)NO)S(C)(=O)=O)sc3c2)CC1` [Example 15, (2R)-4-(6-((4-fluoro-1-methylpiperidin-4-yl)buta-1,3-diyn-1-yl)benzo[d]thiazol-2-yl)-N-hydroxy-2-methyl-2-(methylsulfonyl)butanamide], the MIC in test [1] was determined as 0.25 µg/mL (≈ 0.509 µM); in test [2], 1 µg/mL (≈ 2.03 µM); in test [3] it was 0.5 µg/mL (≈ 1.02 µM).

Take `C[C@@](CCc1nc2ccc(C#CC#CC3CN(CC4COC4)C3)cc2s1)(C(=O)NO)S(C)(=O)=O` [Example 9, (2R)—N-hydroxy-2-methyl-2-(methylsulfonyl)-4-(6-((1-(oxetan-3-ylmethyl)azetidin-3-yl)buta-1,3-diyn-1-yl)benzo[d]thiazol-2-yl)butanamide]: the MIC stood at 0.125 µg/mL (≈ 0.249 µM) in test [1], 1 µg/mL (≈ 1.99 µM) in test [2] and 0.25 µg/mL (≈ 0.498 µM) in test [3].

`CN1C[C@@H](C#CC#Cc2ccc3nc(CC[C@](C)(C(=O)NO)S(C)(=O)=O)sc3c2)[C@@H]1CO` [Example 19, (2R)—N-hydroxy-4-(6-(((2R,3R)-2-(hydroxymethyl)-1-methylazetidin-3-yl)buta-1,3-diyn-1-yl)benzo[d]thiazol-2-yl)-2-methyl-2-(methylsulfonyl)butanamide]: the “MIC for E. coli ATCC25922” value in test [1] turned out to be 0.5 µg/mL. Further, in test [2], the “MIC for P. aeruginosa ATCC27853” value was found to be 1 µg/mL. Also, the “MIC for K. Pneumoniae A-651” value in test [3] stood at 2 µg/mL.

Regarding `C[C@@](CCc1nc2ccc(C#CC#CCOC(=O)N3CCC(O)CC3)cc2s1)(C(=O)NO)S(C)(=O)=O` [Example 2, (2R)-5-(2-(4-(hydroxyamino)-3-methyl-3-(methylsulfonyl)-4-oxobutyl)benzo[d]thiazol-6-yl)penta-2,4-diyn-1-yl 4-hydroxypiperidine-1-carboxylate], the “MIC for E. coli ATCC25922” value in test [1] turned out to be 0.25 µg/mL. For the same compound, the “MIC for P. aeruginosa ATCC27853” value in test [2] came to 1 µg/mL. In addition, the “MIC for K. Pneumoniae A-651” value in test [3] turned out to be 0.5 µg/mL.

As to `CN1C[C@@H](C#CC#Cc2ccc3nc(CC[C@](C)(C(=O)NO)S(C)(=O)=O)sc3c2)C[C@@H]1CO` [Example 20, (2R)—N-hydroxy-4-(6-(((3R,5R)-5-(hydroxymethyl)-1-methylpyrrolidin-3-yl)buta-1,3-diyn-1-yl)benzo[d]thiazol-2-yl)-2-methyl-2-(methylsulfonyl)butanamide], the MIC in test [1] stood at 0.5 µg/mL (≈ 1.02 µM); in test [2] it was 1 µg/mL (≈ 2.04 µM); in test [3] it was 1 µg/mL (≈ 2.04 µM).

Regarding `C[C@@](CCc1nc2ccc(C#CC#CC3CN(C4COC4)C3)cc2s1)(C(=O)NO)S(C)(=O)=O` [Example 1, (2R)—N-hydroxy-2-methyl-2-(methylsulfonyl)-4-(6-((1-(oxetan-3-yl)azetidin-3-yl)buta-1,3-diyn-1-yl)benzo[d]thiazol-2-yl)butanamide], the MIC was 0.25 µg/mL (≈ 0.513 µM) in test [1], 1 µg/mL (≈ 2.05 µM) in test [2] and 0.25 µg/mL (≈ 0.513 µM) in test [3].

With `C[C@@](CCc1nc2ccc(C#CC#CC3CN(CCO)C3)cc2s1)(C(=O)NO)S(C)(=O)=O` [Example 5, (2R)—N-hydroxy-4-(6-((1-(2-hydroxyethyl)azetidin-3-yl)buta-1,3-diyn-1-yl)benzo[d]thiazol-2-yl)-2-methyl-2-(methylsulfonyl)butanamide], the MIC is 1 µg/mL (≈ 2.1 µM) in test [1], 1 µg/mL (≈ 2.1 µM) in test [2] and 0.5 µg/mL (≈ 1.05 µM) in test [3].

As for `CN1CC(C#CC#Cc2ccc3nc(CC[C@](C)(C(=O)NO)S(C)(=O)=O)sc3c2)C1` [Example 4, (2R)—N-hydroxy-2-methyl-4-(6-((1-methylazetidin-3-yl)buta-1,3-diyn-1-yl)benzo[d]thiazol-2-yl)-2-(methylsulfonyl)butanamide], the MIC in test [1] is 0.25 µg/mL (≈ 0.561 µM); in test [2], 1 µg/mL (≈ 2.24 µM); in test [3], 0.5 µg/mL (≈ 1.12 µM).

As for `CN1CC[C@H]1C#CC#Cc1ccc2nc(CC[C@](C)(C(=O)NO)S(C)(=O)=O)sc2c1` [Example 8, (2R)—N-hydroxy-2-methyl-4-(6-(((2S)-1-methylazetidin-2-yl)buta-1,3-diyn-1-yl)benzo[d]thiazol-2-yl)-2-(methylsulfonyl)butanamide], the results for the MIC in test [1], in test [2] and in test [3] were 0.25 µg/mL (≈ 0.561 µM), 2 µg/mL (≈ 4.49 µM) and 1 µg/mL (≈ 2.24 µM), respectively.

As for `C[C@@](CCc1nc2ccc(C#CC#CC3CN(C4CC4)C3)cc2s1)(C(=O)NO)S(C)(=O)=O` [Example 11, (2R)-4-(6-((1-cyclopropylazetidin-3-yl)buta-1,3-diyn-1-yl)benzo[d]thiazol-2-yl)-N-hydroxy-2-methyl-2-(methylsulfonyl)butanamide], the MIC in test [1] was determined as 0.063 µg/mL (≈ 0.134 µM); in test [2], 2 µg/mL (≈ 4.24 µM); in test [3], 0.125 µg/mL (≈ 0.265 µM).

In the case of `C[C@@](CCc1nc2ccc(C#CC#C[C@@H]3CC[C@H]3CO)cc2s1)(C(=O)NO)S(C)(=O)=O` [Example 7, (2R)—N-hydroxy-4-(6-(((1R,2R)-2-(hydroxymethyl)cyclobutyl)buta-1,3-diyn-1-yl)benzo[d]thiazol-2-yl)-2-methyl-2-(methylsulfonyl)butanamide], the MIC in test [1] came out at 0.125 µg/mL (≈ 0.271 µM); in test [2], 1 µg/mL (≈ 2.17 µM); in test [3], 0.25 µg/mL (≈ 0.543 µM).

In the case of `C[C@@H]1[C@@H](C#CC#Cc2ccc3nc(CC[C@](C)(C(=O)NO)S(C)(=O)=O)sc3c2)CN1C` [Example 16, (2R)-4-(6-(((2R,3S)-1,2-dimethylazetidin-3-yl)buta-1,3-diyn-1-yl)benzo[d]thiazol-2-yl)-N-hydroxy-2-methyl-2-(methylsulfonyl)butanamide], the MIC in test [1] was determined as 0.125 µg/mL (≈ 0.272 µM); in test [2], 0.5 µg/mL (≈ 1.09 µM); in test [3], 0.5 µg/mL (≈ 1.09 µM).
